Data as given in paper PMC11110727, “Exploiting thiol-functionalized benzosiloxaboroles for achieving diverse substitution patterns – synthesis, characterization and biological evaluation of promising antibacterial agents” (RSC Medicinal Chemistry, 2024).
In brackets after ≈: the same amount, converted by molar mass. Like-named read-outs stand apart in the source and are kept apart here.

Columns and labels:
S. aureus ATCC 6538P = assay: Antibacterial activity: MIC/MBC determination and disc-diffusion; format: cell-based, Staphylococcus aureus; settings: S. aureus ATCC 6538P; for diameter of inhibition zone: disc-diffusion, — = zone not observed; for MBC / MIC: Staphylococcus aureus, ATCC6538P; for MIC: read-out: MIC
How it was run: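 Reference agents: fluconazole for yeasts, linezolid for Gram-positive bacteria. Testing used disc diffusion and MIC determination under EUCAST and CLSI recommendations, with MBC/MFC per CLSI. Inocula came from two subcultures at 30 °C for 24–48 h.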

[1] = tested on: S. aureus NMI 1991 K MRSA; assay: Antibacterial activity against clinical MRSA: MIC/MBC; format: cell-based; settings: Staphylococcus aureus, NMI 1991 K MRSA; for MIC: read-out: MIC
Method: Direct antimicrobial activity was determined against the following standard strains: (1) Gram-positive cocci: methicillin-sensitive Staphylococcus aureus ATCC 6538P (MSSA), methicillin-resistant S. aureus subsp. aureus ATCC 43300 (MRSA), S. epidermidis ATCC 12228, Enterococcus faecium ATCC 6057, E. faecalis ATCC 29212, Bacillus subtilis ATCC 6633; (2) Gram-negative bacteria from Enterobacteriales order: Klebsiella pneumoniae ATCC 13883, Escherichia coli ATCC 25922, Enterobacter cloacae DSM 6234, Proteus mirabilis ATCC 12453, Serratia marcescens ATCC 13880; (3) Gram-negative non-fermentative rods: Acinetobacter baumannii ATCC 19606, Pseudomonas aeruginosa ATCC 27853, Stenotrophomonas maltophilia ATCC 12714, S. maltophilia ATCC 13637, Burkholderia cepacia ATCC 25416, Bordetella bronchiseptica ATCC 4617; (4) yeasts: Candida albicans ATCC 90028, C. krusei ATCC 6258, C. parapsilosis ATCC 22019, C. tropicalis (Castellani) Berkhout ATCC 750, C. tropicalis IBA 171, C. guilliermondii IBA 155, and Saccharomyces cerevisiae ATCC 9763. Moreover, 5 clinical strains of methicillin-resistant S. aureus were also included: NMI 664 K, NMI 1576 K, NMI 1712 K, NMI 1991 K, and NMI 2541 K. All strains were stored at −80 °C. Prior to testing, each bacterial strain was subcultured twice on tryptic soy agar TSA (bioMerieux) medium and yeast strains on Sabouraud dextrose agar (bioMerieux) for 24–48 h at 30 °C to ensure viability. The antimicrobial activity was evaluated as previously described[26] by the disc-diffusion method and the MIC determination assays according to the EUCAST (ref. [71] and [72]) and CLSI (ref. [53] and [73]) recommendations. Assessment of bactericidal (MBC) and fungicidal (MFC) activities was performed according to the CLSI recommendations.[54,74] The following reference agents were used: fluconazole (in the case of fungi), linezolid (for Gram-positive bacteria), and nitrofurantoin (for Gram-negative rods). The new benzosiloxaboroles were dissolved in DMSO (Sigma).

K. pneumoniae ATCC 13883 = assay: Antibacterial activity: MIC/MBC, MIC with PAβN, disc-diffusion; format: cell-based, Klebsiella pneumoniae; settings: K. pneumoniae ATCC 13883; for MIC: Klebsiella pneumoniae, ATCC13883, read-out: MIC; for -fold reduction of MIC in the presence of PAβN: PAβN 20 μg mL^−1, MHB + 1 mM MgSO4
How it was run: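 Read-outs are disc-diffusion zones, broth-microdilution MICs and bactericidal concentrations (MBC), following EUCAST and CLSI guidance. The efflux contribution was probed by rerunning MICs with 20 μg mL^−1 PAβN in MgSO4-supplemented (1 mM) Mueller–Hinton II broth, a ≥4-fold decrease being significant.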

[2] = tested on: Human normal lung fibroblasts MRC-5; assay: MTT-based viability (cytotoxicity) assay; settings: for IC50: Homo sapiens, MRC5, 48 h
How it was run: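 MRC-5 pd30 human lung fibroblasts in supplemented MEME at 37 °C, 5% CO2; viability by MTT, absorbance 570 nm, triplicate, as percent of control cells. Selectivity index taken as IC50/MIC against S. aureus MRSA strains.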

[3] = read-out: MBC (first MBC where Eagle effect)
[4] = value after the slash, read-out: second MBC (Eagle effect)
[5] = read-out: second MBC (Eagle effect)

Row | SMILES | diameter of inhibition zone (S. aureus ATCC 6538P) [mm] | MBC (S. aureus ATCC 6538P; [3]) [µg/mL] | MIC (S. aureus ATCC 6538P) [µg/mL] | MBC (S. aureus ATCC 6538P; [4]) [µg/mL] | MBC [1, 3] [µg/mL] | MIC [1] [µg/mL] | MBC [1, 5] [µg/mL] | MIC (K. pneumoniae ATCC 13883) [µg/mL] | viability of MRC-5 ([2]; 6.25 µg·mL−1, 48 h) | viability of MRC-5 ([2]; 12.5 µg·mL−1, 48 h) | viability of MRC-5 ([2]; 25 µg·mL−1, 48 h) | viability of MRC-5 ([2]; 50 µg·mL−1, 48 h) | viability of MRC-5 ([2]; 100 µg·mL−1, 48 h) | viability of MRC-5 ([2]; 200 µg·mL−1, 48 h) | viability of MRC-5 ([2]; 400 µg·mL−1, 48 h) | IC50 [2] [µg/mL] | diameter of inhibition zone (K. pneumoniae ATCC 13883; (-) = zone not observed, paper discs 9 mm) [mm] | -fold reduction of MIC in the presence of PAβN (K. pneumoniae ATCC 13883)
1 | C[Si]1(C)OB(O)c2cc(F)c(SCCC#N)c(F)c21 [Compound 6, 3-((5,7-Difluoro-3-hydroxy-1,1-dimethyl-1,3-dihydrobenzo[c][1,2,5]oxasilaborol-6-yl)thio)propanenitrile] | 30 | 12.5 (≈ 41.8 µM) | 6.25 (≈ 20.9 µM) | > 400 | 25 (≈ 83.6 µM) | 12.5 (≈ 41.8 µM) | > 400 | > 400 | 104.0±5.7 % of control ± SD | 112.1±1.8 % of control ± SD | 104.7±6.7 % of control ± SD | 108.3±3.0 % of control ± SD | 90.4±0.5 % of control ± SD | 43.6±5.1 % of control ± SD | 29.5±5.8 % of control ± SD | 140 (≈ 468 µM) |  | 
2 | C[Si]1(C)OB(O)c2cc(F)c(SC3CC(=O)NC3=O)c(F)c21 (stereo not shown) [Compound 12, 3-((5,7-Difluoro-3-hydroxy-1,1-dimethyl-1,3-dihydrobenzo[c][1,2,5]oxasilaborol-6-yl)thio)pyrrolidine-2,5-dione] | 20 | 100 (≈ 291 µM) | 6.25 (≈ 18.2 µM) |  | 100 (≈ 291 µM) | 12.5 (≈ 36.4 µM) |  | 400 (≈ 1170 µM) | 103.0±1.5 % of control ± SD | 104.4±1.9 % of control ± SD | 94.9±2.3 % of control ± SD | 86.1±6.9 % of control ± SD | 76.4±3.5 % of control ± SD | 46.9±2.7 % of control ± SD | 0.4±0.2 % of control ± SD | 167 (≈ 488 µM) | 17 | 4 -fold
3 | C[Si]1(C)OB(O)c2cc(F)c(SCCS(=O)(=O)c3ccccc3)c(F)c21 [Compound 20, 5,7-Difluoro-1,1-dimethyl-6-((2-(phenylsulfonyl)ethyl)thio)benzo[c][1,2,5]oxasilaborol-3(1H)-ol] | 30 | 12.5 (≈ 30.2 µM) | 3.12 (≈ 7.53 µM) | 200 (≈ 483 µM) | 12.5 (≈ 30.2 µM) | 6.25 (≈ 15.1 µM) | 400 (≈ 965 µM) | > 400 | 101.2±1.7 % of control ± SD | 95.3±1.0 % of control ± SD | 93.5±2.1 % of control ± SD | 84.0±1.5 % of control ± SD | 68.5±4.9 % of control ± SD | 38.8±4.8 % of control ± SD | 3.4±0.9 % of control ± SD | 122 (≈ 294 µM) |  | 4 -fold
4 | CC(=O)CSc1ccc2c(c1F)[Si](C)(C)OB2O [Compound 22, 1-((7-Fluoro-3-hydroxy-1,1-dimethyl-1,3-dihydrobenzo[c][1,2,5]oxasilaborol-6-yl)thio)propan-2-one] | 25 | 200 (≈ 704 µM) | 1.56 (≈ 5.49 µM) |  | 200 (≈ 704 µM) | 3.12 (≈ 11 µM) |  | > 400 | 92.1±0.1 % of control ± SD | 91.5±2.5 % of control ± SD | 85.2±1.1 % of control ± SD | 94.4±2.1 % of control ± SD | 78.4±4.5 % of control ± SD | 69.6±3.7 % of control ± SD | 41.4±0.4 % of control ± SD | > 200 |  | 
5 | C[Si]1(C)OB(O)c2ccc(SCC(=O)c3ccccc3)c(F)c21 [Compound 23, 2-((7-Fluoro-3-hydroxy-1,1-dimethyl-1,3-dihydrobenzo[c][1,2,5]oxasilaborol-6-yl)thio)-1-phenylethan-1-one] | 31 | 3.12 (≈ 9.01 µM) | 1.56 (≈ 4.51 µM) | 200 (≈ 578 µM) | 3.12 (≈ 9.01 µM) | 1.56 (≈ 4.51 µM) | 200 (≈ 578 µM) | > 400 | 99.3±8.4 % of control ± SD | 94.3±0.1 % of control ± SD | 83.3±4.4 % of control ± SD | 85.9±5.1 % of control ± SD | 64.2±3.6 % of control ± SD | 32.0±0.3 % of control ± SD | 1.0±1.3 % of control ± SD | 126 (≈ 364 µM) |  | 
6 | C[Si]1(C)OB(O)c2cc(F)c(S(=O)(=O)N3CCOCC3)c(F)c21 [Compound 29, 5,7-Difluoro-1,1-dimethyl-6-(morpholinosulfonyl)benzo[c][1,2,5]oxasilaborol-3(1H)-ol] | 16 | 400 (≈ 1100 µM) | 200 (≈ 551 µM) |  |  |  |  | > 400 | 90.1±3.4 % of control ± SD | 90.6±4.5 % of control ± SD | 86.8±4.3 % of control ± SD | 80.8±3.4 % of control ± SD | 74.1±0.5 % of control ± SD | 69.6±2.4 % of control ± SD | 60.4±5.2 % of control ± SD | > 400 |  | 
